US20140323562A1, “THIOSULFINATE ANTIOXIDANTS AND METHODS OF USE THEREOF” (Universition of Ottawa, priority 2011, published 2014)
Read-outs that look alike come from different tables or passages of the source. Marks after values point to notes of the source that are not given here.

Key:
[1] = Decomposition / Cope elimination half-life (HPLC); assay type: physicochemical
Description: The lack of radical-trapping activity of allicin and petivericin obvious from FIGS. 1A and 1B could be due to their partitioning to the aqueous phase, where Cope elimination to produce the reactive sulfenic acids 3 and 4, respectively, is slowed dramatically by H-bonding. (V. Vaidya, K. U. Ingold, D. A. Pratt, Angew. Chem. Int. Ed. 2009, 48, 157-160; P. T. Lynett, K. Butts, V. Vaidya, G. E. Garrett, D. A. Pratt, Org. Biomol. Chem. 2011, 9, 3320-3330; E. Block, Angew. Chem. Int. Ed. Engl. 1992, 31, 1135-1178; and F. Freeman, Y. Kodera, J. Agric. Food Chem. 1995, 43, 2332-2338] However, the half-life for decomposition of allicin in the liposome solutions (determined by HPLC) was extended by only 50% compared to that determined in non-H-bonding organic solvents (˜60 minutes). (V. Vaidya, K. U. Ingold, D. A. Pratt, Angew. Chem. Int. Ed. 2009, 48, 157-160; P. T. Lynett, K. Butts, V. Vaidya, G. E. Garrett, D. A. Pratt, Org. Biomol. Chem. 2011, 9, 3320-3330). This is consistent with a previous report which provides a partition coefficient for allicin in phosphatidylcholine:water of Kp=11 (T. Miron, A. Rabinkov, D. Mirelman, M. Wilchek, L. Weiner, Biochim. Biophys. Acta 2000, 1463, 20-30). The Cope elimination of 3 from petivericin was roughly identical—with a half-life of ˜90 minutes (see Supp. Info.). […]

[2] = Oxidation of egg phosphatidylcholine liposomes containing the fluorescent probe H2B-PMHC; conditions: for effect on oxidation of liposome-embedded H2B-PMHC with one equivalent of NAC: MeOAMVN- or ABAP-mediated, 4.5-15 μM, equivalent amount of NAC, PBS pH 7.4; for inhibition of oxidation of liposome-embedded H2B-PMHC: MeOAMVN-mediated (0.2 mM), compound 1.5-15 μM; for inhibition of oxidation of liposome-embedded H2B-PMHC / radical trapping at the lipid/water interface: no thiol; for efficacy relative to α-TOH in a lipid bilayer: inferred from no effect at 15 μM (100-fold over H2BPMHC); for radical trapping at the lipid/water interface: water-soluble ABAP-mediated oxidation; for effect of increasing equivalents of NAC on inhibited period: 4.5 μM compound, MeOAMVN and ABAP, NAC 1-5 equiv. (9) or 0-4 equiv. (5)
Procedure: FIG. 1 depicts representative fluorescence intensity-time profiles from MeOAMVN-mediated (0.2 mM) oxidations of egg phosphatidylcholine liposomes (1 mM) containing 0.15 μM H2BPMHC and increasing concentrations (1.5, 3.0, 4.5, 6.0, 7.5 and 15 μM) of 1 (A), 2 (B), 5 (C) and 8 (D—15 μM profile not shown); fluorescence (λex=485 nm; λem=520 nm) was recorded every 50 s;
FIG. 2 depicts representative fluorescence intensity-time profiles from MeOAMVN-mediated (0.2 mM, left) and ABAP-mediated (2.7 mM, right) oxidations of egg phosphatidylcholine liposomes (1 mM) containing 0.15 μM H2B-PMHC and either 2 (A, B) or 9 (C, D) at 4.5 μM (black), 7.5 μM (grey) or 15 μM (light grey) in PBS buffer of pH 7.4 containing an equivalent amount of NAC; panels E and F show the effect of NAC only (4.5, 7.5 and 15 μM); fluorescence (λex=485 nm; λem=520 nm) was recorded every 50 s; and
FIG. 3 depicts representative fluorescence-time profiles from MeOAMVN-mediated (0.2 mM, left) and ABAP-mediated (2.7 mM, right) oxidations of egg phosphatidylcholine liposomes (1 mM) containing 0.15 μM H2B-PMHC and either 4.5 μM 9 (A, B) with 1, 2, 3 or 5 equiv. of NAC or 4.5 μM 5 (C, D) with 0, 1, 2 or 4 equiv. of NAC; fluorescence (λex=485 nm; λem=520 nm) was recorded every 50 s.
To shed some light on this issue, the radical-trapping abilities of 1, 2 and 5 have been studied in unilamellar phosphatidylcholine liposomes—convenient models for the lipid bilayers that make up biological membranes. The relative reactivities of the compounds were determined using H2B-PMHC (6), an analog of α-tocopherol (7 or α-TOH, the most biologically-active form of Vitamin E and Nature's premier lipophilic radical-trapping antioxidant) (G. W. Burton, K. U. Ingold, Acc. Chem. Res. 1986, 19, 194-201), which undergoes a significant fluorescence enhancement upon oxidation by two equivalents of peroxyl radical. In the presence of a good radical-trapping antioxidant, the fluorescence onset is suppressed since the radicals are trapped by the compound under investigation in lieu of reacting with H2B-PMHC.
Initial experiments focused on the ability of either 1 or 2 to inhibit the oxidation of liposome-embedded H2B-PMHC by either lipophilic or hydrophilic peroxyl radicals derived from the azo initiators MeOAMVN (N. Noguchi, H. Yamashita, N. Gotoh, Y. Yamamoto, R. Numano, E. Niki, Free Rad. Biol. Med. 1998, 24, 259-268) and ABAP, (L. R. C. Barclay, S. J. Locke, J. M. MacNeil, J. VanKessel, G. W. Burton, K. U. Ingold, J. Am. Chem. Soc. 1984, 106, 2479-2481) respectively. Representative results are shown for MeOAMVN-mediated oxidations in FIG. 1. […] Since the reactivity of H2B-PMHC is essentially the same as that of α-TOH, the efficacy of 1 and 2 must therefore be less than 1/100 that of α-TOH in a lipid bilayer.
The time required to reach maximum fluorescence in the first phase of the plots in FIG. 1 (ca. 400 counts), which we will hereafter refer to as the ‘inhibited period’, reflects the stoichiometry of the reaction of the antioxidant and the peroxyl radicals. […] Chem. Int. Ed. 2009, 48, 157-160; and R. Amorati, P. T. Lynett, L. Valgimigli, D. A. Pratt, Chem. Eur. J. 2012, 18, 6370-6379)

[3] = chlorobenzene, 37° C., same conditions; cited from earlier work
[4] = Peroxyl radical clock (methyl linoleate oxidation, Z,E:E,E product ratio by HPLC); conditions: for kinh/kinh (C6BPT): chlorobenzene at 37° C., peroxyl radical clock
Procedure: The kinetics of reaction of p-n-C6H13-BPT with peroxyls was studied using a method based on the peroxyl radical clocks described in Roschek, B.; Tallman, K. A.; Rector, C. L.; Gillmore, J. G.; Pratt, D. A.; Punta, C.; Porter, N. A. J. Org. Chem. 2006, 71, 3527-3532.
Stock solutions of methyl linoleate (“MeLin”) (1.0 M), methoxy 2,2′-Azobis(4-methoxy-2,4-dimethyl valeronitrile) (“MeOAMVN”) (0.1 M), and the thiosulfinates, BPT and p-n-C6H13-BPT 5, were prepared in chlorobenzene. Samples were assembled in 1 mL HPLC autosampler vials with a total reaction volume of 100 μL. Solutions were prepared in the following order to avoid premature oxidation:thiosulfinate (1 mM-7 mM), MeLin (0.10 M) and then MeOAMVN (0.01 M), and diluted to 100 μL with chlorobenzene. The sealed samples were then heated to 37° C. for 2 h. After 2 h, the oxidation was stopped by the addition of butylated hydroxytoluene (“BHT”) (50 μL of 1.0 M solution in hexanes), followed by reduction of the hydroperoxides to alcohols by triphenylphosphine (50 μL of 1 M solution in chlorobenzene). The samples were then diluted to 1 mL with HPLC grade hexanes and analyzed by HPLC (0.5% i-PrOH in hexanes, 1 mL min-1, 40 min, Sun-Fire Silica, 5 mm 4.6×250 mm column, UV detection at 234 nm). The ratio of products (Z,E:E,E) was plotted versus thiosulfinate concentration to derive kH, (Roschek, B.; Tallman, K. A.; Rector, C. L.; Gillmore, J. G.; Pratt, D. A.; Punta, C.; Porter, N. A. J. Org. Chem. 2006, 71, 3527-3532).
The peroxyl radical clock method was used to measure the rate constants for the reaction of a furan-containing thiosulfinate compound (S-(furan-2-ylmethyl) furan-2-ylmethanesulfinothioate) with peroxyl radicals (kinh). The method relies on the competition between the β-fragmentation of a peroxyl radical and its trapping by a H-atom donor. When methyl linoleate is used as a precursor, the reduction of the two initially formed (Z,E)-dienylperoxyl radicals by the antioxidant (A-H in the scheme below) competes with their isomerization to the more thermodynamically stable (E,E)-dienylperoxyl radicals. […]

[5] = going from chlorobenzene to acetonitrile; cited from earlier work
[6] = known from literature under these conditions; cited from earlier work
[7] = radicals generated using MeOAMVN

SMILES: [O-][S+](Cc1ccccc1)SCc1ccccc1 (stereo not shown) [BPT, S-Benzyl phenylmethane thiosulfinate]
- half-life ([1]; liposome solutions): ~1.5 h
- effect on oxidation of liposome-embedded H2B-PMHC with one equivalent of NAC [2]: little effect
- inhibition of oxidation of liposome-embedded H2B-PMHC [2]: neither 1 nor 2 were able to slow the oxidation
- efficacy relative to α-TOH in a lipid bilayer [2]: less than 1/100
- radical trapping at the lipid/water interface [2]: cannot
- kH [3]: 200000 M⁻¹ s⁻¹

SMILES: CC(=O)N[C@@H](CS)C(=O)O [NAC, N-acetylcysteine]
- effect of NAC alone on oxidation ([2]; ABAP-mediated, 4.5, 7.5 and 15 μM): only a modest retarding effect
- effect of NAC alone on oxidation ([2]; MeOAMVN-mediated, 4.5, 7.5 and 15 μM): does little

SMILES: [O-][S+](Cc1ccco1)SCc1ccco1 (stereo not drawn) [S-(furan-2-ylmethyl) furan-2-ylmethanesulfinothioate]
- kinh/kinh (C6BPT) [4]: 1.1

SMILES: C=CCS[S+]([O-])CC=C (stereo not shown) [compound 1, allicin]
- extension of half-life for decomposition in liposome solutions compared to non-H-bonding organic solvents ([1]; HPLC): 50%
- effect on oxidation of liposome-embedded H2B-PMHC with one equivalent of NAC [2]: little effect
- inhibition of oxidation of liposome-embedded H2B-PMHC [2]: neither 1 nor 2 were able to slow the oxidation
- efficacy relative to α-TOH in a lipid bilayer [2]: less than 1/100
- radical trapping at the lipid/water interface [2]: cannot

SMILES: OSC12c3ccccc3C(c3ccccc31)c1ccccc12 [compound 5, 9-triptycenesulfenic acid]
- effect of increasing equivalents of NAC on inhibited period [2]: the inhibited period was extended with increasing concentration of NAC
- inhibition of oxidation of liposome-embedded H2B-PMHC [2]: excellent concentration-dependent radical-trapping activity
- rate of H2B-PMHC oxidation (fluorescence increase) ([2]; MeOAMVN-mediated, in presence of compound): essentially nil
- number of peroxyl radicals trapped (stoichiometry) ([2]; implied from slope relative to 8): one
- slope of inhibited period versus concentration ([2]; radicals generated using AAPH): 10 min/µM
- slope of inhibited period versus concentration [2, 7]: 14 min/µM
- radical trapping at the lipid/water interface [2]: can trap radicals at the lipid/water interface

SMILES: Cc1c(C)c2c(c(C)c1O)CC[C@@](C)(CCC[C@H](C)CCC[C@H](C)CCCC(C)C)O2 [compound 7, α-tocopherol]
- slowing of rate of reaction with peroxyl radicals by H-bond accepting solvent [5]: 20 fold

SMILES: Cc1c(C)c2c(c(C)c1O)CCC(C)(C)O2 [compound 8, PMHC]
- slope of inhibited period versus concentration ([2]; radicals generated using AAPH): 21 min/µM
- slope of inhibited period versus concentration [2, 7]: 31 min/µM
- radical trapping at the lipid/water interface [2]: can trap radicals at the lipid/water interface
- number of peroxyl radicals trapped (stoichiometry) [6]: two

SMILES: CCCCCCc1ccc(CS[S+]([O-])Cc2ccc(CCCCCC)cc2)cc1 (stereo not shown) [compound 9]
- effect of increasing equivalents of NAC on inhibited period [2]: proportionately increased the inhibited period
- effect on oxidation of liposome-embedded H2B-PMHC with one equivalent of NAC [2]: pronounced inhibited period
- inhibition of oxidation of liposome-embedded H2B-PMHC [2]: essentially indistinguishable from those supplemented with allicin and petivericin

SMILES: CCCCCCc1ccc(CS[S+]([O-])Cc2ccc(CCCCCC)cc2)cc1 (stereo not shown) [p-n-C6H13-BPT 5, p-n-C6H13-Benzyl phenylmethane thiosulfinate]
- kinh/kinh (C6BPT) [4]: 1.0^a
- rate constant relative to that of BPT ([4]; chlorobenzene, 37° C., MeLin 0.10 M, MeOAMVN 0.01 M): about 1.6 fold
